Test results taken from patent US10196378B2, “Inhibitors of BCR-ABL mutants and use thereof” (THE REGENTS OF THE UNIVERSITY OF MICHIGAN, priority 2016, dated 2019).

How the values were obtained:
[1] = system: parental IL-3 dependent Ba/F3 cells; experiment: cells; conditions: Mus musculus, BaF3, read-out: GI50, Ba/F3 parental
[2] = system: chronic myelogenous leukemia; conditions: CML patients; about 30% prior to any targeted therapy; cited from earlier work
[3] = system: K562; experiment: Growth inhibition (GI50) in K562 CML cells; assay type: cell-based; conditions: Homo sapiens, K562, read-out: GI50, K562
[4] = system: BV-173; experiment: Growth inhibition (GI50) in BV-173 CML cells; assay type: cell-based; conditions: Homo sapiens, BV-173, read-out: GI50, BV-173
[5] = system: BV-173R; experiment: Growth inhibition (GI50) in BV-173R CML cells; assay type: cell-based; conditions: read-out: GI50, BV-173R
[6] = target: Tie2 (Homo sapiens (Human), UniProt Q02763); experiment: NanoSyn single-concentration kinase inhibition; assay type: biochemical; conditions: read-out: % inhibition at 100 nM, Tie2
[7] = target: FGFR3 (Homo sapiens (Human), UniProt P22607); experiment: NanoSyn single-concentration kinase inhibition; assay type: biochemical; conditions: read-out: % inhibition at 100 nM, FGFR3
[8] = target: Abl2/Arg (Homo sapiens (Human), UniProt P42684); experiment: NanoSyn single-concentration kinase inhibition; assay type: biochemical; conditions: read-out: % inhibition at 100 nM, Abl2/Arg
[9] = target: FLT3 (Homo sapiens (Human), UniProt P36888); experiment: NanoSyn single-concentration kinase inhibition; assay type: biochemical; conditions: read-out: % inhibition at 100 nM, FLT3
[10] = target: Lyn-A (Homo sapiens (Human), UniProt P07948); experiment: NanoSyn single-concentration kinase inhibition; assay type: biochemical; conditions: read-out: % inhibition at 100 nM, Lyn-A
[11] = target: PDGFRα (Homo sapiens (Human), UniProt P16234); experiment: NanoSyn single-concentration kinase inhibition; assay type: biochemical; conditions: read-out: % inhibition at 100 nM, PDGFRα
[12] = target: Lck (Homo sapiens (Human), UniProt P06239); experiment: NanoSyn single-concentration kinase inhibition; assay type: biochemical; conditions: read-out: % inhibition at 100 nM, Lck
[13] = target: C-Raf (Homo sapiens (Human), UniProt P04049); experiment: NanoSyn single-concentration kinase inhibition; assay type: biochemical; conditions: read-out: % inhibition at 100 nM, C-Raf
[14] = target: PDGFRβ (Homo sapiens (Human), UniProt P09619); experiment: NanoSyn single-concentration kinase inhibition; assay type: biochemical; conditions: read-out: % inhibition at 100 nM, PDGFRβ
[15] = target: VEGFR1 (FLT1) (Homo sapiens (Human), UniProt P17948); experiment: NanoSyn single-concentration kinase inhibition; assay type: biochemical
[16] = target: MAP4K5 (Homo sapiens (Human), UniProt Q9Y4K4); experiment: NanoSyn single-concentration kinase inhibition; assay type: biochemical; conditions: read-out: % inhibition at 100 nM, MAP4K5
[17] = target: FGFR1 (Homo sapiens (Human), UniProt P11362); experiment: NanoSyn single-concentration kinase inhibition; assay type: biochemical; conditions: read-out: % inhibition at 100 nM, FGFR1
[18] = target: EPH-A3 (Homo sapiens (Human), UniProt P29320); experiment: NanoSyn single-concentration kinase inhibition; assay type: biochemical; conditions: read-out: % inhibition at 100 nM, EPH-A3
[19] = target: Csk (Homo sapiens (Human), UniProt P41240); experiment: NanoSyn single-concentration kinase inhibition; assay type: biochemical; conditions: read-out: % inhibition at 100 nM, Csk
[20] = target: VEGFR3 (FLT4) (Homo sapiens (Human), UniProt P35916); experiment: NanoSyn single-concentration kinase inhibition; assay type: biochemical; conditions: read-out: % inhibition at 100 nM, VEGFR3 (FLT4)
[21] = target: T1, VEGFR2 (KDR) (Homo sapiens (Human), UniProt P35968)
[22] = phase I trial, cited from earlier work
[23] = target: T1, VEGFR2 (KDR); experiment: biochemical; conditions: read-out: % inhibition at 100 nM, VEGFR2 (KDR), 100 nM

VEGFR1 (FLT1), sequence (P17948 27-1338, species assumed): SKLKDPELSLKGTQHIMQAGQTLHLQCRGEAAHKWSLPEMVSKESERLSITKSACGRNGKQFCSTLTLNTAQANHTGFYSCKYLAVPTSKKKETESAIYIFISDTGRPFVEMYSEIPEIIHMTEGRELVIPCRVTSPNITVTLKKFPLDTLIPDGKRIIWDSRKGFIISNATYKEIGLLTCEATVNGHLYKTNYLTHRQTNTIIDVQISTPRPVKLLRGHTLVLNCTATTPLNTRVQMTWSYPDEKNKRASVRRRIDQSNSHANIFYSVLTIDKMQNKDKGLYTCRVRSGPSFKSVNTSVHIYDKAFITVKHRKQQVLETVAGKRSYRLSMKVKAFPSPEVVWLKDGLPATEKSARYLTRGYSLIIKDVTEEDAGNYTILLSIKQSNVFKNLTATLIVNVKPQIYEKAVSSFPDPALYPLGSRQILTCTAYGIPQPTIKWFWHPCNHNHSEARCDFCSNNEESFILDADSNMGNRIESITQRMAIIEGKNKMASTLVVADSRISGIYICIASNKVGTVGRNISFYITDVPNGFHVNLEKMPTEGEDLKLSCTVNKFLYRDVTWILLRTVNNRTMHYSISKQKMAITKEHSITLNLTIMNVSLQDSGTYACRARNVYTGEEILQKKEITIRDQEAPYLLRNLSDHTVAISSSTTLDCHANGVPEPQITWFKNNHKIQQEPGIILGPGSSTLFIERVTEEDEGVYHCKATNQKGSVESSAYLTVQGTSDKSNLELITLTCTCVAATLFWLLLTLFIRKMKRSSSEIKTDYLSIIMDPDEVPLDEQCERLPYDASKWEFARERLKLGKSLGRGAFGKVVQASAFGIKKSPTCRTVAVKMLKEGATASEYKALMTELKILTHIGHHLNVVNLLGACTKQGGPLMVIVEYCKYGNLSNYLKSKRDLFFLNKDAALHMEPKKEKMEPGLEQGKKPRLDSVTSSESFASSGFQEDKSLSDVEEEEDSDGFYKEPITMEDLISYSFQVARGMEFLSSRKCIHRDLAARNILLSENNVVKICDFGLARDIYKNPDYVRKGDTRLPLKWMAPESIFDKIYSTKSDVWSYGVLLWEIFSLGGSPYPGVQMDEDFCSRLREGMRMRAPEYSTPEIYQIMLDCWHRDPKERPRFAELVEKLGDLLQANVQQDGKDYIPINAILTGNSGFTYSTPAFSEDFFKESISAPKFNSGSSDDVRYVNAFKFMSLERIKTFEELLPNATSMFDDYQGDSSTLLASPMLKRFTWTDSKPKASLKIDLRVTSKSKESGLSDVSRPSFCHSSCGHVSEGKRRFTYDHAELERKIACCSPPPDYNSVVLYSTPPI
T1 sequence (P35968 20-1356, species assumed): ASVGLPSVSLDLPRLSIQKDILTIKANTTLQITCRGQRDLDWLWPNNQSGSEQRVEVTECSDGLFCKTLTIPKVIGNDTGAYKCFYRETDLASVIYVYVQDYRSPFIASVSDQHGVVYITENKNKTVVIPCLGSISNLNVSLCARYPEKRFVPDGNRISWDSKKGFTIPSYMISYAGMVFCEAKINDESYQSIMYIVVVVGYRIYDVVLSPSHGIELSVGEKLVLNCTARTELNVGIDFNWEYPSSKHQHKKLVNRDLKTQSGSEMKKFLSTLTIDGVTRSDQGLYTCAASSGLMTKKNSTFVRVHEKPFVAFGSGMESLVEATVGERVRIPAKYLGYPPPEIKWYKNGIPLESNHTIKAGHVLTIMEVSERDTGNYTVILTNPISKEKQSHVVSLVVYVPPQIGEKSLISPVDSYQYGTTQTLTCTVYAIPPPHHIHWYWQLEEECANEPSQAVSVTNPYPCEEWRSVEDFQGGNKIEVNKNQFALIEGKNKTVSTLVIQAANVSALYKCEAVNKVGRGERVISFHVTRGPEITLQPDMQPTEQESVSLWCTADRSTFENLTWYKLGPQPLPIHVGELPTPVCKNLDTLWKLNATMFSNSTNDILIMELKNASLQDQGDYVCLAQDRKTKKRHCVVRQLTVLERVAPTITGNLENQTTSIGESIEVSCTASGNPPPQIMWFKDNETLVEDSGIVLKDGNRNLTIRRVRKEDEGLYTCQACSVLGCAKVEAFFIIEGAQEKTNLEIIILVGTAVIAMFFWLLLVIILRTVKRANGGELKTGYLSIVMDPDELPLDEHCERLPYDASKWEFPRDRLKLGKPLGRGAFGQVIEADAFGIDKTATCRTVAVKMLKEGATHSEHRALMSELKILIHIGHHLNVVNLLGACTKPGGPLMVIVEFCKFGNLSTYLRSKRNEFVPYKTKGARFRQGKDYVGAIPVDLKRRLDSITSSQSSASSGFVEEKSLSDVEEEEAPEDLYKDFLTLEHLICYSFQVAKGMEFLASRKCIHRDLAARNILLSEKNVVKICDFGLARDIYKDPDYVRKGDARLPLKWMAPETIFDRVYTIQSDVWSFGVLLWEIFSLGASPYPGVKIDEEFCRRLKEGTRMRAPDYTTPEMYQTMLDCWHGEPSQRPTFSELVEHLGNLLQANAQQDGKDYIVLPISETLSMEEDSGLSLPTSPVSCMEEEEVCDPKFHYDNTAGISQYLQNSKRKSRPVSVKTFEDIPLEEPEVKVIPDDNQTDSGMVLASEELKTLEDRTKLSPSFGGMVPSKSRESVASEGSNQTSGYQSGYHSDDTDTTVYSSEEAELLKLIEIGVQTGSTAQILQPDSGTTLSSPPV
Lck, sequence (P06239 whole entry, species assumed): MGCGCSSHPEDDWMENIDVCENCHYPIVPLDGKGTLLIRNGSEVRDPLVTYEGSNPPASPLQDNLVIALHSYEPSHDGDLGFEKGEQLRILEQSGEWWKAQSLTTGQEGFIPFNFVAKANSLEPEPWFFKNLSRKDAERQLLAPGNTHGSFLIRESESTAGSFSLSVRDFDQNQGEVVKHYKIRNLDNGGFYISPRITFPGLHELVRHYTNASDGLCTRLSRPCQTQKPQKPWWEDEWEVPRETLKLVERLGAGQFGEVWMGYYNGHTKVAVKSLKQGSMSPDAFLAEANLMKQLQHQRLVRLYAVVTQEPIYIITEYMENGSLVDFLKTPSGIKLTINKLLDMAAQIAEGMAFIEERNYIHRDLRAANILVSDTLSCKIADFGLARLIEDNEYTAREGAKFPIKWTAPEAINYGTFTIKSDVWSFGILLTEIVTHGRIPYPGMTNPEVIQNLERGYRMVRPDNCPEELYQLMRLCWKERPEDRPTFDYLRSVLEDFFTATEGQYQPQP
PDGFRα, sequence (P16234 24-1089, species assumed): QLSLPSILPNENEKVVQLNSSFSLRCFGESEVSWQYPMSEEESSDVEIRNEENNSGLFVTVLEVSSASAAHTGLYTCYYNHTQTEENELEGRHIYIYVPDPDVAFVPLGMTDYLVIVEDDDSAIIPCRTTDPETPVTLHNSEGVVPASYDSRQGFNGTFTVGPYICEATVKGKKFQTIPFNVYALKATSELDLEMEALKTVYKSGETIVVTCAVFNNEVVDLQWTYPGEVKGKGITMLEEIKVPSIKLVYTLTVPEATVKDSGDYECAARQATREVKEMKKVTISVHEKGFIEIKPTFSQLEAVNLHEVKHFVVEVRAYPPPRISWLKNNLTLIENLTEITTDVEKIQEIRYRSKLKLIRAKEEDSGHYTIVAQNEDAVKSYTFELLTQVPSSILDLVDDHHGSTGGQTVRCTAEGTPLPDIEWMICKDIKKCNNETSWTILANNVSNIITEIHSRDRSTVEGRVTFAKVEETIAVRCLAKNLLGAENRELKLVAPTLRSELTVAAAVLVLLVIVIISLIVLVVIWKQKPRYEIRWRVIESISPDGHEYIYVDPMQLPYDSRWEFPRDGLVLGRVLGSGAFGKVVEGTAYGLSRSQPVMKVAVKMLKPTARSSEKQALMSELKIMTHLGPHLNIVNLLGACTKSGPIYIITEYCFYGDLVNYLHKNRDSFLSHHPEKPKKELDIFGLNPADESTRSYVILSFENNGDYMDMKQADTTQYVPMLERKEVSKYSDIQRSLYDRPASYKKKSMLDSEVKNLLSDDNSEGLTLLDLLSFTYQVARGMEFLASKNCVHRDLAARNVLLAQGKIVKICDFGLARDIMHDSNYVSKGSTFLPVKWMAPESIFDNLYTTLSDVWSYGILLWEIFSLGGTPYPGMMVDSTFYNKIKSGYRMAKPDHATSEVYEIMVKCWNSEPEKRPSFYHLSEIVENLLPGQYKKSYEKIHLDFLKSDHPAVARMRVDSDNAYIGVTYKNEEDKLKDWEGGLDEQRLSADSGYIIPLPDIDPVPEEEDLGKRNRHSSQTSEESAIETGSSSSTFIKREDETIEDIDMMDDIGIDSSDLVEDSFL
C-Raf, sequence (P04049 whole entry, species assumed): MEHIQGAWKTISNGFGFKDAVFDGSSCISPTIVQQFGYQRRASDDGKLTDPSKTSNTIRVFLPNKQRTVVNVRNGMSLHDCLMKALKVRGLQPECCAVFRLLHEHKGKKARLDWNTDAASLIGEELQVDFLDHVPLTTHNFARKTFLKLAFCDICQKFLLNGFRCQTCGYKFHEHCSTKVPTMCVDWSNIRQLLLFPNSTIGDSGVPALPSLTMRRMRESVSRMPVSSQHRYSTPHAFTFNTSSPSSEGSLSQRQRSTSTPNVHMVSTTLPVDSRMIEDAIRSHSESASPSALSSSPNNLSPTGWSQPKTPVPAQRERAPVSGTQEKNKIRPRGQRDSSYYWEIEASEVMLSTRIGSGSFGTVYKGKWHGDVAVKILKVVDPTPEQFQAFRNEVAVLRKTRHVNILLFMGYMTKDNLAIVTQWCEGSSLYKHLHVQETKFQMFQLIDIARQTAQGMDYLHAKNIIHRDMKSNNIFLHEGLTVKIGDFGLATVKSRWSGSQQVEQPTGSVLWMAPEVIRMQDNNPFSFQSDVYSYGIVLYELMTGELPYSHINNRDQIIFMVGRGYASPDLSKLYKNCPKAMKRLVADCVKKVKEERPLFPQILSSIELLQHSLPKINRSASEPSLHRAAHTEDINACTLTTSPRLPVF

Work on `CNC(=O)c1cc(Oc2ccc(NC(=O)Nc3ccc(CN4CCN(C)CC4)c(C(F)(F)F)c3)cc2)ccn1` [Compound C01] yielded a GI50 [1] of 4.84 µM.

Work on `CN1CCN(Cc2ccc(NC(=O)Nc3ccc(Oc4ccncc4)cc3)cc2C(F)(F)F)CC1` [Compound C02] yielded a GI50 [1] of 5 µM.

`CN1CCN(Cc2ccc(NC(=O)Nc3ccc(Oc4ccc5ncncc5c4)cc3)cc2C(F)(F)F)CC1` [Compound C03] showed a GI50 [1] of 5.58 µM.

`CN1CCN(Cc2ccc(NC(=O)Nc3ccc(Nc4ccc5ncccc5c4)cc3)cc2C(F)(F)F)CC1` [Compound C04] gave a GI50 [1] of 5.12 µM.

`CN1CCN(Cc2ccc(NC(=O)Nc3ccc(Oc4ccc5ncccc5c4)cc3)cc2C(F)(F)F)CC1` [Compound C05] showed a GI50 [1] of 5.3 µM.

Work on `CN1CCN(Cc2ccc(NC(=O)Nc3ccc(Oc4ccc5cccnc5c4)cc3)cc2C(F)(F)F)CC1` [Compound C06] yielded a GI50 [1] of 5.22 µM.

For `Cc1ccc(NC(=O)c2ccc(CN3CCN(C)CC3)cc2)cc1Nc1nccc(-c2cccnc2)n1` [imatinib], the “5-year overall survival rate” value [2] is listed as 90%.

With `Cc1ccc(C(=O)Nc2ccc(CN3CCN(C)CC3)c(C(F)(F)F)c2)cc1C#Cc1cnc2cccnn12` [ponatinib] the GI50 [3] was 0.0025 µM, the GI50 [4] was 0.006 µM and the GI50 [5] was 0.015 µM. For the same molecule, the inhibition at 0.1 µM [6] was 95%, the inhibition at 0.1 µM [7] was 91% and the inhibition at 0.1 µM [8] was 99%. It also gave an inhibition at 0.1 µM [9] of 95%, an inhibition at 0.1 µM [10] of 99% and an inhibition at 0.1 µM [11] of 98%. It also gave an inhibition at 0.1 µM [12] of 99%, an inhibition at 0.1 µM [13] of 118% and an inhibition at 0.1 µM [14] of 108%. For the same molecule, the “% inhibition at 100 nM, VEGFR1 (FLT1)” value ([15]; 100 nM) was 107%, the inhibition at 0.1 µM ([15]; read-out: % inhibition at 100 nM, VEGFR1 (FLT1), 100 nM) was 100% and the inhibition at 0.1 µM [16] was 102%. It also gave an inhibition at 0.1 µM [17] of 102%, an inhibition at 0.1 µM [18] of 101% and an inhibition at 0.1 µM [19] of 100%. For the same molecule, the inhibition at 0.1 µM [20] was 100%, the “% inhibition at 100 nM, VEGFR2 (KDR)” value [21] was 102% and the “patients with serious vascular AEs” value ([22]; median follow-up of 2.7 years) was 48%. The “patients who developed arterial or venous thrombosis and occlusions” value [22] was “Twenty-seven”, the “patients with heart failure, including fatalities” value [22] was 8% and the inhibition at 0.1 µM [23] was 100%.
